Values of other authors as cited in patent publication US9757705B2, “Method for production of concentrates of preferably water-soluble active agents” (KWIZDA AGRO GMBH, priority 2013, dated 2017).

Details: at 20° C.; according to literature

**Q.** For C/C(=N\C#N)N(C)Cc1ccc(Cl)nc1 [Acetamiprid], which solubility is on record?
**A.** Its solubility is 400 mg/100 ml.
